This is an account of results in patent US9340622B2, “Synthetic immunogen useful for generating long lasting immunity and protection against pathogens” (priority 2010, dated 2016).

Experiment [1] relates to human peripheral blood mononuclear cells. As to the kind of experiment: T cell proliferation of human PBMCs (3H-thymidine incorporation). The format is cell-based. Particulars: compared to non-lipidated peptide counterparts, FIG. 9.
Another experiment has as its system Bone marrow derived DCs. Put plainly: Activation and MHC markers on bone marrow derived DCs. It is filed as cell-based, C57BL/6 mice. Conditions: BMDCs day 7, treated 12 hrs. On the procedure:
FIG. 4. Lipidated peptides [immunogens] enhance DC maturation. (A) BALB/c mice were immunized with lipidated peptides [immunogen] and free peptides. Total splenocytes were recovered and in vitro stimulated with the lipidated and free peptides. After 48 hrs of incubation, they were harvested and stained for DC population (CD11c^+/CD40^+). CD11c^+/CD40^+ population indicates mature DCs. Lipidated immunogen constructs were able to induce DC maturation compared to their unlipidated counterparts. (B) Bone marrow derived DCs from C57BL/6 mice were cultured using standard protocol. On day 7 of culture they were treated with free or lipidated peptides for 12 hrs and then the cells were harvested and stained for activation markers. […] (C) On day 7 of culture, bone marrow derived DCs were treated with free or lipidated peptides for 12 hrs. Later on, the cells were harvested and stained for CD74 (immature MHC) and IA^b (mature MHC).

The test system of the next experiment is CD4 T cells. As to the kind of experiment: Intracellular staining for IFN-γ in CD4 T cells. It is filed as cell-based. Particulars: splenocytes of mice immunized with lipopeptide containing SEQ ID No. 1, cultured 48 h, restimulated 6 h, FIG. 6. As to the method:
FIG. 6. CD4 T cells from mice immunized with immunogen containing SEQ ID No. 1 produced IFN-γ on in vitro peptide restimulation. Mice were immunized with lipopeptide containing SEQ ID No. 1. Splenocytes from the immunized mice were cultured with A) medium; B) Pam2Cys; C) non-lipidated peptide (SEQ ID No. 1); D) lipopeptide (containing SEQ ID No. 1) for 48 h. Cells were restimulated for 6 h and stained for surface CD4 and intracellular for IFN-γ. Representative flow cytometry contours depict IFN-γ producing CD4 T cells and numbers indicate their percentage.
Mice were immunized with the developed immunogenic lipopeptides (20 nmol/animal). Twenty-one days later, a booster dose (10 nmol) was administered. Animals were sacrificed 45 days post booster immunization.
Lymphocytes (2×10^6 cells/ml) were cultured with peptides in triplicates in 96 w plate for 48 h. Cells were pooled and washed twice with wash buffer (PBS containing FBS-1%). Cells were re-stimulated with PMA (50 ng/ml) and ionomycin (1 μg/ml) for 6 h/37° C. and in the last 4 h brefeldin A (10 μg/ml) was added in cultures. After 6 h of activation, cells, were washed twice with staining buffer (BSA-1%, NaN3-0.01% in PBS). […] Finally, cells were fixed in parafolmaldehyde-1% and acquired on FACS Aria II and data was analyzed by FACS DIVA (BD Biosciences, San Jose, Calif.).

Experiment [2] deals with M. tuberculosis H37Rv. Further details: species or system mice. Conditions: mouse, in vivo.
Experiment [3] deals with M. tuberculosis H37Rv. Details: species or system Duncan-Hartley guinea pigs. Conditions: guinea pig, in vivo.
Where [4] appears, read: compared to free peptide, FIG. 4C.

Read-outs that look alike come from different tables or passages of the source. Ends that are not written are not given here.

For the compound “L91: immunogen wherein X1=SEQ ID. No. 1 and X2=0; peptide linked via two serines to Pam2Cys (SEFAYGSFVRTVSLPVGADE; also: linked via two serines to Pam2Cys, end not given here; listed as Mycobacterium tuberculosis)”, the “proliferation of human PBMCs from sputum positive tuberculosis patient” value in experiment [1] was “enhanced the proliferation”. Further, in the experiment on Bone marrow derived DCs (setting [4]), the “expression of CD74 (immature MHC)” value is recorded as “decrease in expression”. For the same compound, in the experiment on Bone marrow derived DCs (setting [4]), the “expression of IA^b (mature MHC)” value is on record as “enhanced expression”. For the same compound, the “expression of CD80, CD86, CD40” value with Bone marrow derived DCs (compared to p91 treated cells, FIG. 4B) is listed as “enhanced expression”. In addition, in the experiment on CD4 T cells, the “production of IFN-γ in CD4 T cells” value is listed as “predominant production of IFN-γ”. The “Mycobacterial load in lungs (CFU)” value is “restricted the growth of mycobacterium significantly” with M. tuberculosis H37Rv [2] and “significantly lower bacterial load in lungs” with M. tuberculosis H37Rv [3].
For `CCCCCCCCCCCCCCCC(=O)OCC(CSC[C@H](N)C(=O)O)OC(=O)CCCCCCCCCCCCCCC` (stereo partly drawn) [Pam2Cys, S-[2,3-bis(palmitoyloxy)propyl]cysteine, reference compound], the “production of IFN-γ in CD4 T cells” value in the experiment with CD4 T cells was “did not elicit production of IFN-γ”.
